According to EP0240907A2, “Use of trans-4-[(2-amino-3,5-dibromobenzyl)amino]cyclohexanol” (priority 1986, dated 1987):
Counter-ions that a name gives are not always drawn.

Experiments:
physchem = type: physicochemical; conditions: water
Procedure: Bei Anwendung von Ambroxol muß die Dosis 50 bis 100 mg betragen. Berücksichtigt man, daß Ambroxol nur in 1 %iger Lösung stabil ist und alle konzentrierteren Lösungen bei […] Temperaturen zur […], so zeigt dies, […] in der Praxis in einer Dosis von 5 bis 10 ml zur Anwendung kommen müßte, die völlig unrealistisch ist.

[1] = test system: tracheobronchiales oder sinubronchiales Syndrom; conditions: inhalate in 1 %iger Emser Sole; patients who also had rhinitis needed additional cold remedies; cited from earlier work
Kaninchenauge = conditions: 1%-ige Ambroxol-HCL-Lösung; cited from earlier work

SMILES: Nc1c(Br)cc(Br)cc1CN[C@H]1CC[C@H](O)CC1 [Ambroxol, trans-4-[(2-Amino-3,5-dibrom-benzyl)-amino]cyclohexanol]
- solubility (physchem): ≤ 10000 µg/mL
- Wirksamkeit bei Patienten mit tracheobronchialem oder sinubronchialem Syndrom [1]: wirksam

SMILES: Nc1c(Br)cc(Br)cc1CN[C@H]1CC[C@H](O)CC1 [Ambroxol-HCL]
- Reizung des Kaninchenauges (Kaninchenauge): keine Reizung
